Experimental data: ChEMBL document CHEMBL2331123, “Deuterated clopidogrel analogues as a new generation of antiplatelet agents” (ACS Med Chem Lett, 2013)

Assays:
Rattus norvegicus [1] = assay: Inhibition of ADP-induced platelet aggregation in Wistar rat blood at 10 mg/kg, po after 2 hrs by aggregometer analysis relative to vehicle-treated control
Rattus norvegicus [2] = assay: Inhibition of ADP-induced platelet aggregation in Wistar rat blood at 10 mg/kg, po after 5 mins by aggregometer analysis relative to vehicle-treated control

## COC(=O)C(c1ccccc1Cl)N1CCc2sccc2C1 (stereo not drawn)
Rattus norvegicus [1]
  aggregation at 10 mg/kg: 60.4%
Rattus norvegicus [2]
  aggregation at 10 mg/kg: 29.4%

## [3H]C1([3H])c2ccsc2C([3H])([3H])C([3H])([3H])N1C(C(=O)OC)c1ccccc1Cl (stereo not drawn)
Rattus norvegicus [1]
  aggregation at 10 mg/kg: 50.6%
Rattus norvegicus [2]
  aggregation at 10 mg/kg: 7%

## [3H]C1([3H])c2sccc2CN(C(C(=O)OC)c2ccccc2Cl)C1([3H])[3H] (stereo not drawn)
Rattus norvegicus [1]
  aggregation at 10 mg/kg: 49.1%
Rattus norvegicus [2]
  aggregation at 10 mg/kg: 7.3%

## [3H]C1([3H])c2ccsc2CCN1C(C(=O)OC)c1ccccc1Cl (stereo not drawn)
Rattus norvegicus [1]
  aggregation at 10 mg/kg: 50.4%
Rattus norvegicus [2]
  aggregation at 10 mg/kg: 12.9%
